Measured values from the supplement of paper PMC11208160.

Experiment: recombinant UMI read abundance after kanamycin selection (control-corrected) (log10(CPM+1)); higher = more efficient recombination; extreme values may be limits of the assay; sequences stand for … in AGTGCAGAGAAAATCGGCCAGTTTTCTCTGCCTGCAGTCCGCATGCCGTGGGACCCCTTGGGTTCTAACCTGTTGCCTAGATTTATGCAGCGGACTGCCTTTCTCCCAAAGTGATAAACCGG…AGGTTGGTTTCACT; site = the 11-nt donor
Experimental: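 Pooled E. coli donor-specificity screen for the IS621 bridge recombinase. Each library member carries a reprogrammed 11-nt donor and a full-length LE bridge RNA expressed in cis from the natural promoter, with a paired donor-binding loop (8-nt LDG + 4-nt RDG) and a target-binding loop fixed to T5. It is co-electroporated with a T5 target plasmid; recombinase is induced with 0.07 mM IPTG and recombinants are selected on kanamycin. UMIs are counted as CPM, averaged over two biological replicates and corrected by the unselected control. Molecule = full bridge RNA written as DNA, built from the T5 scaffold: LDG = donor specificity nt 1-8, RDG = reverse complement of nt 8-11.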
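Note: IS621 bridge recombinase in Escherichia coli cells against a fixed T5 target plasmid.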

| Sequence | recombinant UMI read abundance (log10) |
| --- | --- |
| ACACATCCATGGACCGGTTTTCCCGGTAATCCGTATTTGAC (site ACACATCCTTT) | 0.421 |
| ACACATCCATGGACCGGTTTTCCCGGTAATCCGTATTTGAC (site ACACATGCTGT) | 0 |
| ACACATCCATGGACCGGTTTTCCCGGTAATCCGTATTTGAC (site ACACATTCTGT) | 0.87 |
| ACACATCCATGGACCGGTTTTCCCGGTAATCCGTATTTGAC (site ACACCTCCTGT) | 0.91 |
| ACACATCCATGGACCGGTTTTCCCGGTAATCCGTATTTGAC (site ACACGTCCTGT) | 0.84 |
| ACACATCCATGGACCGGTTTTCCCGGTAATCCGTATTTGAC (site ACACTTCCTGT) | 0 |
| ACACATCCATGGACCGGTTTTCCCGGTAATCCGTATTTGAC (site ACAGATCCTGT) | 0 |
| ACACATCCATGGACCGGTTTTCCCGGTAATCCGTATTTGAC (site ACATATCCTGT) | 0.818 |
| ACACATCCATGGACCGGTTTTCCCGGTAATCCGTATTTGAC (site ACCCATCCTGT) | 0 |
| ACACATCCATGGACCGGTTTTCCCGGTAATCCGTATTTGAC (site ACGCATCCTGT) | 0 |
| ACACATCCATGGACCGGTTTTCCCGGTAATCCGTATTTGAC (site ACTCATCCTGT) | 0 |
| ACACATCCATGGACCGGTTTTCCCGGTAATCCGTATTTGAC (site AGACATCCTGT) | 0 |
| ACACATCCATGGACCGGTTTTCCCGGTAATCCGTATTTGAC (site ATACATCCTGT) | 0 |
| ACACATCCATGGACCGGTTTTCCCGGTAATCCGTATTTGAC (site CCACATCCTGT) | 0.581 |
| ACACATCCATGGACCGGTTTTCCCGGTAATCCGTATTTGAC (site GCACATCCTGT) | 0 |
| ACACATCCATGGACCGGTTTTCCCGGTAATCCGTATTTGAC (site TCACATCCTGT) | 0.538 |
| ACACATCCATGGACCGGTTTTCCCGGTAATCCGTATTTGGC (site ACACATCCTGA) | 0 |
| ACACATCCATGGACCGGTTTTCCCGGTAATCCGTATTTGGC (site ACACATCCTGC) | 1.5 |

| Sequence | recombinant UMI read abundance (log10) |
| --- | --- |
| ACACATCCATGGACCGGTTTTCCCGGTAATCCGTATTTGGC (site ACACATCCTGG) | 0 |
| ACACATCCATGGACCGGTTTTCCCGGTAATCCGTATTTGGC (site ACACATCCTGT) | 1.19 |
| ACACCATCATGGACCGGTTTTCCCGGTAATCCGTATTTGAG (site ACACCATCTCT) | 1.25 |
| ACACCATCATGGACCGGTTTTCCCGGTAATCCGTATTTGCA (site ACACCATCTTG) | 2.8 |
| ACACCATCATGGACCGGTTTTCCCGGTAATCCGTATTTGCA (site ACAGTATCTTG) | 1.21 |
| ACACCCTCATGGACCGGTTTTCCCGGTAATCCGTATTTGAC (site ACACCCTCTGT) | 3.42 |
| ACACCGTCATGGACCGGTTTTCCCGGTAATCCGTATTTGCC (site ACACCGTCTGG) | 3.04 |
| ACACGAACATGGACCGGTTTTCCCGGTAATCCGTATTTGGC (site ACACGAACTGA) | 1.19 |
| ACACGAACATGGACCGGTTTTCCCGGTAATCCGTATTTGGC (site ACACGAACTGC) | 2.77 |
| ACACGAACATGGACCGGTTTTCCCGGTAATCCGTATTTGGC (site ACACGAACTGG) | 0 |
| ACACGAACATGGACCGGTTTTCCCGGTAATCCGTATTTGGC (site ACACGAACTGT) | 1.93 |
| ACACGAACATGGACCGGTTTTCCCGGTAATCCGTATTTGTA (site ACACGAACTAA) | 0.0114 |
| ACACGAACATGGACCGGTTTTCCCGGTAATCCGTATTTGTA (site ACACGAACTCA) | 0.747 |
| ACACGAACATGGACCGGTTTTCCCGGTAATCCGTATTTGTA (site ACACGAACTGA) | 1.52 |
| ACACGAACATGGACCGGTTTTCCCGGTAATCCGTATTTGTA (site ACACGAACTTA) | 2.52 |
| ACACGATCATGGACCGGTTTTCCCGGTAATCCGTATTTGTC (site ACACGAACTGA) | 0.373 |
| ACACGATCATGGACCGGTTTTCCCGGTAATCCGTATTTGTC (site ACACGACCTGA) | 0 |
| ACACGATCATGGACCGGTTTTCCCGGTAATCCGTATTTGTC (site ACACGAGCTGA) | 0 |
